Experimental findings from US4603217A, “Ester substituted alkyl-2-(2,6-dichloroanilino)phenyl acetates” (priority 1983, dated 1986) are described below.

Data set [1] in a line: in vivo. The note with it: mouse, po.
Data set [2] is described as follows: Rate of hydrolysis in rat plasma. Format: in vitro ADME. The note with it: in 1 ml of plasma rat (37° C., incubation for 1 hr). The procedure:
**in 1 ml of plasma rat (37° C., incubation for 1 hr)

A further data set deals with carrageenan edema. In words: inhibition test of carrageenan edema employing a foot-pad edema method. Format: in vivo, male Wister rats. The note with it: for ED50: Rattus norvegicus, male Wister rats, foot-pad edema, read-out: ED50 for inhibition for carrageenan edema; for anti-inflammatory activity compared with DF: relative to DF. From the text:
Anti-inflammatory action was investigated according to the method of Winter et al [cf. Pro. Soc. Exp. Biol. Med., 111, 544 (1962)] by the inhibition test of carrageenan edema employing a foot-pad edema method using carrageenan as an irritating agent and male Wister rats weighing 130 to 170 g.
(The carrageenan paw model is a standard test of acute inflammation.)

The next data set concerns ultraviolet erythema. In words: inhibition action for ultraviolet erythema. Format: in vivo, male Hartley guinea pigs. Also noted: 2 hs after the irradiation, Average ± standard error / 3 hs after the irradiation, Average ± standard error / 5 hs after the irradiation, Average ± standard error: scale not given here; 2 hs after the irradiation, Rate for inhibition / 3 hs after the irradiation, Rate for inhibition / 5 hs after the irradiation, Rate for inhibition: unit not given here. The note with it: for 2 hs after the irradiation, Average ± standard error / 2 hs after the irradiation, Rate for inhibition: 2 hs after irradiation; for 2 hs after the irradiation, Average ± standard error / 2 hs after the irradiation, Rate for inhibition / 3 hs after the irradiation, Average ± standard error / 3 hs after the irradiation, Rate for inhibition / 5 hs after the irradiation, Average ± standard error / 5 hs after the irradiation, Rate for inhibition: guinea pigs; for 3 hs after the irradiation, Average ± standard error / 3 hs after the irradiation, Rate for inhibition: 3 hs after irradiation; for 5 hs after the irradiation, Average ± standard error / 5 hs after the irradiation, Rate for inhibition: 5 hs after irradiation. The procedure: With respect to Compounds 1 to 3, 15 and 21 which are especially useful as an anti-inflammatory drug, IM and DF, inhibition action for ultraviolet erythema was investigated according to the method of Adames et al [cf. Nature, London, 181, 773 (1958)] using guinea pigs as follows: Male Hartley guinea pigs weighing 250 to 350 g were shaved at their sides the day before and two hrs before the ultraviolet irradiation. To the guinea pigs were administered orally Compounds 1 to 3, 15 and 21, IM and DF in amounts as described in Table 2, respectively. To the control group was administered orally only Tween-80. At 1 hr after the time of administration, the guinea pigs were irradiated at their shaved sides by ultraviolet beam for 40 seconds.
The reaction of the ultraviolet erythema was evaluated at 2 hrs, 3 hrs and 5 hrs after irradiation according to the method of Winder et al [cf. Arch. Int. Pharmacodyn., 116, 261 (1958)]. […] Compounds 1 and 2 show a duration of the pharmacological effect over 5 hrs, contrary to that IM has a duration of 2 hrs.

Data set [3] in a line: in vivo. The note with it: rat, po. The procedure:
Gastrointestinal ulcer formation action, which is a principal side effect of an acid anti-inflammatory drug, was investigated according to the method of Okabe et al [cf. […] The compounds of the present invention, IM, DF and acemethacin were suspended in 5% Tween-80 solution and administered orally 1 ml/100 g body weight to the rats, respectively. At 6 hrs after the administration, the state of glandstomach was observed by means of a dissecting microscope whether the ulcer having a diameter more than 1 mm was generated or not.

Where only a bound is given, the exact number is not on record here.

Broadly, the LD50 is the dose at which mortality reaches 50%. A word on the ED50: it is the midpoint of the dose-response relation.

In the data set “in vivo [1]”, `CC=CC=CC(=O)OCOC(=O)Cc1ccccc1Nc1c(Cl)cccc1Cl` [Compound 15, 2,4-Hexadienoyloxymethyl-2-(2,6-dichloroanilino)phenylacetate] gave an LD50 of 500 mg/kg. In addition, in data set [2], the metabolised at 1 h stood at 80.5%. In the data set on carrageenan edema, the ED50 was found to be 20 mg/kg and the “anti-inflammatory activity compared with DF” value is “almost equal anti-inflammatory activity to DF”. For the same molecule, in the data set on ultraviolet erythema (3 mg/kg orally), the “2 hs after the irradiation, Average ± standard error” value turned out to be 1.17 ± 0.167; the “2 hs after the irradiation, Rate for inhibition” value was 56.2; the “3 hs after the irradiation, Average ± standard error” value was 2.0 ± 0.258; the “3 hs after the irradiation, Rate for inhibition” value is 29.3. In the data set on ultraviolet erythema (3 mg/kg orally), the “5 hs after the irradiation, Average ± standard error” value is reported as 3.00 ± 0 and the “5 hs after the irradiation, Rate for inhibition” value came to 0. Besides, in the data set on ultraviolet erythema (10 mg/kg orally), the “2 hs after the irradiation, Average ± standard error” value was 0.67 ± 0.211; the “2 hs after the irradiation, Rate for inhibition” value stood at 74.9; the “3 hs after the irradiation, Average ± standard error” value is reported as 2.3 ± 0.333; the “3 hs after the irradiation, Rate for inhibition” value turned out to be 18.7. Moreover, in the data set with ultraviolet erythema (10 mg/kg orally), the “5 hs after the irradiation, Average ± standard error” value stood at 2.83 ± 0.167 and the “5 hs after the irradiation, Rate for inhibition” value was 0. For the same molecule, in the data set on ultraviolet erythema (relative to IM and DF), the “inhibition effect for ultraviolet erythema compared with IM and DF” value is “equal inhibition effect for ultraviolet erythema to that of IM and DF”.

The molecule `C/C=C/C(=O)OC(C)OC(=O)Cc1ccccc1Nc1c(Cl)cccc1Cl` (centres unmarked) [Compound 19, 1-(Crotonoyloxy)ethyl-2-(2,6-dichloroanilino)phenylacetate] registered an LD50 in “in vivo [1]” of 380 mg/kg. The same molecule showed a metabolised at 1 h in data set [2] of 86%. Moreover, in the data set with carrageenan edema, the ED50 is less than 30 mg/kg. Also, the TD50 at 6 h in the data set “in vivo [3]” was 30 mg/kg.

With `CC(C)=CC(=O)OC(C)OC(=O)Cc1ccccc1Nc1c(Cl)cccc1Cl` (centres unmarked) [Compound 20, 1-(3,3-Dimethylacryloyloxy)ethyl-2-(2,6-dichloroanilino)phenylacetate], the LD50 in the data set “in vivo [1]” came out at 460 mg/kg. This molecule showed a metabolised at 1 h in data set [2] of 80.3%. In the data set on carrageenan edema, the ED50 turned out to be 20 mg/kg and the “anti-inflammatory activity compared with DF” value is “almost equal anti-inflammatory activity to DF”. This molecule also yielded a TD50 at 6 h in “in vivo [3]” of 30 mg/kg.

With `CC(C)=CC(=O)OCOC(=O)Cc1ccccc1Nc1c(Cl)cccc1Cl` [Compound 14, 3,3-Dimethylacryloyloxymethyl-2-(2,6-dichloroanilino)phenylacetate], the LD50 in “in vivo [1]” was determined as 455 mg/kg. For the same molecule, the metabolised at 1 h in data set [2] is 83.4%. For the same molecule, in the data set with carrageenan edema, the ED50 was less than 30 mg/kg. In addition, the TD50 at 6 h in “in vivo [3]” was 30 mg/kg.

As to `COc1ccc2c(c1)c(CC(=O)OC(C)OC(C)=O)c(C)n2C(=O)c1ccc(Cl)cc1` (centres unmarked) [Compound 8, 1-(Acetoxy)ethyl[1-(p-chlorobenzoyl)-5-methoxy-2-methyl-3-indolyl]acetate], in the data set “in vivo [1]”, the LD50 is 65 mg/kg. In addition, the metabolised at 1 h in data set [2] turned out to be 99.8%. Moreover, in the data set with carrageenan edema, the median effective dose (ED50) turned out to be 6 mg/kg. The molecule further had a TD50 at 6 h in the data set “in vivo [3]” of 20 mg/kg.

In the data set “in vivo [1]”, `COc1ccc2c(c1)c(CC(=O)OCC(=O)O)c(C)n2C(=O)c1ccc(Cl)cc1` [Acemethacin, acemethacin, reference compound] showed an LD50 of 45 mg/kg. The metabolised at 1 h in data set [2] worked out at 4.2%. The ED50 in the data set on carrageenan edema was found to be 8.3 mg/kg. In addition, the TD50 at 6 h in the data set “in vivo [3]” (in vivo) is 17.5 mg/kg.

With `COc1ccc2c(c1)c(CC(=O)OCCOC(=O)C=C(C)CCC=C(C)C)c(C)n2C(=O)c1ccc(Cl)cc1` [Compound 7, 2-(3,7-Dimethyl-2,6-octadienoyloxy)ethyl[1-(p-chlorobenzoyl)-5-methoxy-2-methyl-3-indolyl]acetate], in “in vivo [1]”, the LD50 turned out to be 780 mg/kg. Moreover, the metabolised at 1 h in data set [2] stood at 60.5%. The ED50 in the data set on carrageenan edema is greater than 20 mg/kg. The molecule further registered a TD50 at 6 h in “in vivo [3]” greater than 20 mg/kg.

Molecule `CC=CC=CC(=O)OCCOC(=O)Cc1c(C)n(C(=O)c2ccc(Cl)cc2)c2ccc(OC)cc12` [Compound 6, 2-(2,4-Hexadienoyloxy)ethyl[1-(p-chlorobenzoyl)-5-methoxy-2-methyl-3-indolyl]acetate] returned an LD50 in the data set “in vivo [1]” of 85 mg/kg. The metabolised at 1 h in data set [2] was found to be 69%. Besides, the median effective dose (ED50) with carrageenan edema came out at 13 mg/kg. Further, in “in vivo [3]”, the TD50 at 6 h came to 40 mg/kg.

On to `CC(=O)OCCOC(=O)Cc1ccccc1Nc1c(Cl)cccc1Cl` [Compound 16, 2-(Acetoxy)ethyl-2-(2,6-dichloroanilino)-phenylacetate], for which the LD50 in “in vivo [1]” was 610 mg/kg. The molecule also returned a metabolised at 1 h in data set [2] of 93.7%. For the same molecule, in the data set on carrageenan edema, the ED50 came to 20 mg/kg and the “anti-inflammatory activity compared with DF” value is on record as “almost equal anti-inflammatory activity to DF”.

Turning to `CCC(=O)OC(C)OC(=O)Cc1c(C)n(C(=O)c2ccc(Cl)cc2)c2ccc(OC)cc12` (centres unmarked) [Compound 9, 1-(Propionyloxy)ethyl[1-(p-chlorobenzoyl)-5-methoxy-2-methyl-3-indolyl]acetate], the LD50 in “in vivo [1]” was 65 mg/kg. Moreover, in data set [2], the metabolised at 1 h came to 97.3%. In the data set on carrageenan edema, the ED50 was 6 mg/kg. In addition, the TD50 at 6 h in “in vivo [3]” is 20 mg/kg.

`CC(C)=CC(=O)OCCOC(=O)Cc1ccccc1Nc1c(Cl)cccc1Cl` [Compound 17, 2-(3,3-Dimethylacryloyloxy)ethyl-2-(2,6-dichloroanilino)phenylacetate]: the LD50 in “in vivo [1]” came out at 400 mg/kg. The metabolised at 1 h in data set [2] was determined as 78.4%. Moreover, the ED50 in the data set on carrageenan edema was 30 mg/kg. Moreover, the TD50 at 6 h in the data set “in vivo [3]” is 30 mg/kg.

In turn, `CC(=O)OC(C)OC(=O)Cc1ccccc1Nc1c(Cl)cccc1Cl` (centres unmarked) [Compound 18, 1-(Acetoxy)ethyl-2-(2,6-dichloroanilino)-phenylacetate] gave an LD50 in “in vivo [1]” of 295 mg/kg. In data set [2], the metabolised at 1 h is 96.1%. Further, in the data set on carrageenan edema, the ED50 is 20 mg/kg and the “anti-inflammatory activity compared with DF” value is listed as “almost equal anti-inflammatory activity to DF”. In “in vivo [3]”, this molecule returned a TD50 at 6 h of 30 mg/kg.

`COc1ccc2c(c1)c(CC(=O)OCCOC(=O)C=C(C)C)c(C)n2C(=O)c1ccc(Cl)cc1` [Compound 5, 2-(3,3-Dimethylacryloyloxy)ethyl[1-(p-chlorobenzoyl)-5-methoxy-2-methyl-3-indolyl]acetate]: in the data set “in vivo [1]”, the LD50 was determined as 62 mg/kg. This molecule also displayed a metabolised at 1 h in data set [2] of 75.3%. For the same molecule, in the data set with carrageenan edema, the ED50 amounted to 15 mg/kg. The TD50 at 6 h in “in vivo [3]” amounted to 40 mg/kg.

`C/C=C/C(=O)OCOC(=O)Cc1ccccc1Nc1c(Cl)cccc1Cl` [Compound 13, Crotonoyloxymethyl-2-(2,6-dichloroanilino)-phenylacetate] registered an LD50 in the data set “in vivo [1]” of 400 mg/kg. In addition, the metabolised at 1 h in data set [2] worked out at 89.7%. For the same molecule, the ED50 with carrageenan edema was less than 30 mg/kg. The TD50 at 6 h in the data set “in vivo [3]” is 30 mg/kg.

With `C/C=C/C(=O)OCCOC(=O)Cc1c(C)n(C(=O)c2ccc(Cl)cc2)c2ccc(OC)cc12` [Compound 4], in “in vivo [1]”, the LD50 was 85 mg/kg. This molecule came in with a metabolised at 1 h in data set [2] of 83%. For the same molecule, the ED50 in the data set with carrageenan edema was 15 mg/kg. In the data set “in vivo [3]”, this molecule displayed a TD50 at 6 h of 40 mg/kg.

As to `COc1ccc2c(c1)c(CC(=O)OC(C)OC(=O)C=C(C)C)c(C)n2C(=O)c1ccc(Cl)cc1` (centres unmarked) [Compound 11, 1-(3,3-Dimethylacryloyloxy)ethyl[1-(p-chlorobenzoyl)-5-methoxy-2-methyl-3-indolyl]acetate], in the data set “in vivo [1]”, the median lethal dose (LD50) was determined as 45 mg/kg. The molecule further displayed a metabolised at 1 h in data set [2] of 85.4%. The ED50 in the data set on carrageenan edema amounted to 15 mg/kg. For the same molecule, the TD50 at 6 h in “in vivo [3]” stood at 10 mg/kg.

In the case of `CC=CC=CC(=O)OC(C)OC(=O)Cc1c(C)n(C(=O)c2ccc(Cl)cc2)c2ccc(OC)cc12` (centres unmarked) [Compound 12, 1-(2,4-Hexadienoyloxy)ethyl[1-(p-chlorobenzoyl)-5-methoxy-2-methyl-3-indolyl]acetate], in the data set “in vivo [1]”, the LD50 was 640 mg/kg. The molecule also showed a metabolised at 1 h in data set [2] of 80.4%. In addition, the ED50 in the data set with carrageenan edema was greater than 20 mg/kg. This molecule gave a TD50 at 6 h in the data set “in vivo [3]” greater than 20 mg/kg.
